# Data taken from US20100267753A1, “METHODS OF TREATING DISORDERS ASSOCIATED WITH PROTEIN KINASE CK2 ACTIVITY” (priority 2009, published 2010).
# Read-outs that look alike come from different tables or passages of the source.
# Experiments:
# [1] = system: IL-8; experiment: IL-8 production in prostate cancer cells; format: cell-based
# [2] = Pharmacokinetics in dog (IV bolus or oral dose); format: in vivo; conditions: for AUC(0-inf) / Cmax / half-life / Vd: plasma; for half-life: read-out: Terminal T1/2 (converted); for Vd: read-out: Vdss
# Procedure: The pharmacokinetics properties of drugs were investigated in three species, following an intravenous (IV) bolus or oral (PO) dose of Compound K at the dosages indicated in the chart. Blood samples were collected at predetermined times and the plasma separated. Plasma was separated from the blood samples collected at 5, 15 and 30 minutes and 1, 2, 4, 8 and 24 hours post-dose.
# Drug levels were quantified by the LC/MS/MS method described below. Noncompartmental pharmacokinetic analysis was applied for intravenous administration. A linear trapezoidal rule was used to compute AUC(0-24). The terminal t1/2 and C0 were calculated using the last three and the first three data points, respectively
# Bioanalysis was performed using a Quattro Micro LC/MS/MS instrument in the MRM detection mode, with an internal standard (1S). Briefly, 15 μL plasma samples were prepared for analysis using protein precipitation with 120 μL of acetonitrile. The supernatants were transferred into a 96 well plate and subjected to LC-MS/MS analysis using a Phenomenex Polar-RP HPLC column. The mobile phases were 10 mM NH4HCO3 in water (Solution-A) and 10 mM NH4HCO3 in methanol (Solution-B). The column was initially equilibrated with 25% Solution-B and followed with 100% Solution B over 5 minutes. […] Quantitation of the analytes was performed in the batch mode with two bracketing calibration curves according to the bioanalytical sample list.
# [3] = molecular target: HIPK3 (Homo sapiens, UniProt Q9H422); experiment: Kinase panel IC-50, HIPK3; format: biochemical
# HIPK3, sequence (Q9H422 whole entry, species assumed): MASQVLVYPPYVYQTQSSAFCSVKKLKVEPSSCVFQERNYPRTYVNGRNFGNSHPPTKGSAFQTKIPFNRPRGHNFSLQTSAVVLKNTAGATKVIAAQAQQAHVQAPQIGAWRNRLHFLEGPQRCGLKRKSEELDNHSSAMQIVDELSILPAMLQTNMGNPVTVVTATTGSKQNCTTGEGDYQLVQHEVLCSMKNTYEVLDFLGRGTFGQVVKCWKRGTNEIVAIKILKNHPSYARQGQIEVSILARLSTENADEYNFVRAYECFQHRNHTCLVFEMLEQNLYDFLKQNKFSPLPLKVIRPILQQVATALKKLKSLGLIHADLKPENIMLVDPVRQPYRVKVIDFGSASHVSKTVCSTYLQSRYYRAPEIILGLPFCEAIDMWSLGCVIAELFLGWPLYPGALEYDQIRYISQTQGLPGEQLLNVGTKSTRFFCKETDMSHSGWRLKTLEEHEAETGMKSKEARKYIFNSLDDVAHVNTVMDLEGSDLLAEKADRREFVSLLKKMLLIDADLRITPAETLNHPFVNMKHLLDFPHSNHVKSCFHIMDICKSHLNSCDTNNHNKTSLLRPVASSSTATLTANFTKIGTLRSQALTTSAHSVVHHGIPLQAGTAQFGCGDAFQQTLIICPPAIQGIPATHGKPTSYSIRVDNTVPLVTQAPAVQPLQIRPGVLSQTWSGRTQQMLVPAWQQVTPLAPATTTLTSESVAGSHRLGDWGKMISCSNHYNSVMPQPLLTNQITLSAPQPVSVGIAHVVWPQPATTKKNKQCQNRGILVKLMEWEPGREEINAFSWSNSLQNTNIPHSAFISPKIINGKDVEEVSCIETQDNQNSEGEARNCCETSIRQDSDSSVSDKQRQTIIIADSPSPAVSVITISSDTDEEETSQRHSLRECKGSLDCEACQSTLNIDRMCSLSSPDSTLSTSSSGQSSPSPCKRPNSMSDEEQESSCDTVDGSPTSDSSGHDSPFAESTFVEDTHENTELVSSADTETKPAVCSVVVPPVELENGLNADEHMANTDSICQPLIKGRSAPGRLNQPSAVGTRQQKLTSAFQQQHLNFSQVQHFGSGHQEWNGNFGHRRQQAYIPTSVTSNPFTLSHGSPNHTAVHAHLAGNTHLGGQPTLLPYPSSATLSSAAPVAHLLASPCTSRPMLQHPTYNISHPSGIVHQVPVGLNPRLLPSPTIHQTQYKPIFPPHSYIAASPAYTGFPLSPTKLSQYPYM
# [4] = system: xenograft tumor; experiment: Xenograft tumor growth (pre-clinical); format: in vivo; conditions: single agent
# [5] = system: CFA-induced thermal hyperalgesia; experiment: CFA-induced thermal hyperalgesia model (Hargreaves); format: in vivo, ICR mice; conditions: 25, 75 or 150 mg/kg BID for four days, dosed as suspensions
# Procedure: The observations of pain responses were done blindly.
# […] On day 4, test subjects received a single injection of CFA (20 microliters) subcutaneously in the plantar surface of the left rear paw. CFA was injected subcutaneously into the plantar surface of the left hind paw of each test subject, under isoflurane anesthesia. […] On day 5, thermal responses were measured prior to treatment with the compound and again 1, 2, and 4 hours after treatment with […]. Withdrawal latencies were measured in response to thermal stimulus by the Hargreaves method. Naproxen was used as a positive control.
# [6] = system: HIV-1 isolates; experiment: PBMC assay, virus production; format: cell-based
# Procedure: Acute infection of HIV-1 isolates (CXCR4-tropic HIV-1 Subtype B and CCR5-tropic HIV-1 Subtype) using fresh human PBMCs from multiple donors (PMA and IL-2 stimulated). Antiviral activity determined as a reduction in reverse transcriptase after 7-day incubation.
# Antiviral activity was determined as a reduction in reverse transcriptase after 7-day incubation. AZT, a nucleoside analog reverse transcriptase inhibitor, was used as the positive control for the assay.
# [7] = Dog, 1.6 mg/kg IV, different lot
# [8] = Dog, 7.7 mg/kg PO, filled capsules, different lot
# [9] = Dog, 8.2 mg/kg PO, filled capsules
structure (smiles),measurement,setting,value
"O=C(O)c1ccc2c(c1)nc(Nc1cccc(Cl)c1)c1ccncc12 [Compound K, 5-(3-chlorophenylamino)benzo[c][2,6]naphthyridine-8-carboxylic acid]",IL-8 production,[1]; ELISA (24 hr),suppression of IL-8 production
same,IL-8 production,[1]; qRT-PCR (8 hr),suppression of IL-8 production
same,CLs,[2]; [7],0.9 L/h/kg
same,CLs,"[2]; Dog, 1.9 mg/kg IV",0.7 L/h/kg
same,Terminal T1/2,"[2]; Dog, 1.9 mg/kg IV",8.3 h
same,% F0-inf,[2]; [8],41.8%
same,% F0-inf,[2]; [9],51.5%
same,AUC(0-inf),"[2]; dog, iv, 1.6 mg/kg",1640 ng·h/mL
same,AUC(0-inf),"[2]; dog, po, 7.7 mg/kg",3440 ng·h/mL
same,Cmax,[2]; [7],4440 ng/mL
same,half-life,[2]; [7],498 min
same,Vd,[2]; [7],11.3 L/kg
same,Cmax,"[2]; Dog, 1.9 mg/kg IV",5780 ng/mL
same,AUC(0-inf),"[2]; Dog, 1.9 mg/kg IV, 25 mM sodium phosphate buffer",2540 ng·h/mL
same,Vd,"[2]; Dog, 1.9 mg/kg IV",8.9 L/kg
same,Cmax,[2]; [8],2730 ng/mL
same,half-life,[2]; [8],594 min
same,AUC(0-inf),[2]; [9],5650 ng·h/mL
same,Cmax,[2]; [9],2180 ng/mL
same,half-life,[2]; [9],312 min
same,IC50,[3],45 nM
same,xenograft tumor growth,[4],single-agent potency in suppressing xenograft tumor growth
same,effect on CFA-induced thermal hyperalgesia,[5],Neither compound exhibited a statistically significant effect
same,inhibition of virus production,[6],no significant inhibition of virus production
